Test results taken from patent US12366576B2, “Compositions, assays, and methods for direct modulation of fatty acid metabolism” (Dana-Farber Cancer Institute, Inc., priority 2016, dated 2025).
Bridge positions count the residues as written; N and C are the ends. Square brackets hold non-standard residues; d marks the D form. Ends that are not written are not given here. Peptide text beside a SMILES is read from it. S5 = C=CCCC[C@](C)(N)C(=O)O

How the values were obtained:
endogenous MCL-1 = experiment: Biotinylated SAHB pulldown from MEF lysates, anti-MCL-1 Western analysis; format: binding, mouse; conditions: for effect of alanine mutation on biotinylated MCL-1 SAHBD interaction with MCL-1: pull-downs from MEF lysates; for summary of binding properties: binding to MCL-1: pull-downs
Experimental: An exploratory proteomics analysis was conducted to identify proteins that interact with the MCL-1 BH3 domain helix. An extensive library of MCL-1 stapled BH3 peptides (FIG. 2) was generated to both identify novel protein interactors by mass spectrometry and then deploy the stapled peptide constructs as novel probes to dissect and pharmacologically modulate the identified protein interactors and associated signaling pathways. As an example, an N-terminally biotinylated stapled peptide designed based on the sequence of MCL-1's BH3 domain (Btn-MCL-1 SAHBD), or vehicle, was incubated with wild-type mouse embryonic fibroblast (MEF) lysates, followed by high stringency streptavidin capture. To validate the proteomics workflow and ensure that Btn-MCL-1 SAHBD could, in fact, engage protein interactors in a lysate, eluates were first run on a gel for anti-MCL-1 Western analysis. […] For mass spectrometry (MS) analysis, eluates were run on a reducing/denaturing gel followed by Coomassie staining (FIG. 4) and in-gel digestion was performed before injection on the instrument.
The binding determinants for the MCL-1 BH3/VLCAD interaction were investigated by generating a series of biotinylated MCL-1 SAHBD alanine point mutants (FIG. 18A) and performing streptavidin pull-downs from MEF lysates, followed by VLCAD and MCL-1 western analysis of the resulting eluates. […] Native alanines and residues not mutated are colored white.
Wild-type MEFs were trypsinized, washed once with cold PBS, and lysed on ice with NP-40 lysis buffer (50 mM Tris, pH 7.4, 150 mM NaCl, 0.5% (v/v) NP-40, complete protease inhibitor pellet (Roche)) using 1 ml of lysis buffer for every 10 million cells lysed. Cellular debris was pelleted at 14,000 g for 10 min at 4° C., and the supernatant was quantified using the BCA Protein Assay Kit (Thermo Fisher Scientific). 2 mg of lysate per pulldown were then exposed to 50 μL of pre-equilibrated High Capacity Streptavidin Agarose beads (Thermo Fisher Scientific). […] The beads were then pelleted and washed with NP-40 lysis buffer three times before eluting the protein sample from the beads by heating at 70° C. for 10 min in SDS loading buffer. Samples were then subjected to electrophoresis and either Western analysis or Coomassie stain (SimplyBlue Safe Stain, Thermo Fisher Scientific). […] Coomassie stained gels were then processed for proteomics analysis (see below). Biotinylated SAHB pulldowns of recombinant protein were performed as above incubating 5 nmol of SAHB with 10 pmol of rVLCAD in 500 μL total volume. Densitometry analyses were performed using ImageJ software.

VLCAD = target: T1, VLCAD (Homo sapiens, UniProt P49748); experiment: Isothermal calorimetry (ITC); format: binding; conditions: 80 μM recombinant VLCAD, injection of 100 μM peptide, 25° C.
T1 construct: 10x His (N); made in house; host or cells: E. coli BL21(DE3), pET19b
T1 sequence (P49748 40-655): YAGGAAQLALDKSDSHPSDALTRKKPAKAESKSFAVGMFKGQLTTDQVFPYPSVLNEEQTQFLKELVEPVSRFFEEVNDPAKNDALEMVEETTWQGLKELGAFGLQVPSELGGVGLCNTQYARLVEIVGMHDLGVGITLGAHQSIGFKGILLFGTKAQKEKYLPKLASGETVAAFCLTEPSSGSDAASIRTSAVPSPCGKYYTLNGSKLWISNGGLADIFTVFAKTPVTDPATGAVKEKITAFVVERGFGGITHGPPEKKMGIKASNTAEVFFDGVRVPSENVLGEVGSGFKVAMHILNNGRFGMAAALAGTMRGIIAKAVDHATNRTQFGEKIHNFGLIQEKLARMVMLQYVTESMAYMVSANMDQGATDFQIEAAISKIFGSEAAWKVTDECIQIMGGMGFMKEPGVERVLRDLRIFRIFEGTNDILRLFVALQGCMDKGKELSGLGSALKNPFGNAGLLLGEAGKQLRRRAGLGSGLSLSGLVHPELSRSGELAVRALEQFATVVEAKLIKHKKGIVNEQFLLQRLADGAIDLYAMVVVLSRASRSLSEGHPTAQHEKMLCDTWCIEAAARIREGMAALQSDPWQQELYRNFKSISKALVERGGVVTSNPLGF
Description: The alanine mutant peptide panel was then utilized in an isothermal calorimetry (ITC)-based enthalpy screen to assess the relative binding activities of the different peptides to recombinant VLCAD protein (FIG. 19A). Although some differences in binding hierarchy were observed between the pull down (native protein) and ITC (purified recombinant protein) methods, those peptides displaying the strongest and weakest binding activity for VLCAD were similar between the two analyses.
VLCAD. Mature human VLCAD lacking its cleavable leader sequence (aa 40-655) (NP_000009.1) was subcloned into the pET19b vector (Novagen) using NdeI and XhoI restriction sites. Correct insertion was confirmed by DNA sequencing. The 10× His-tagged VLCAD construct was expressed in BL21(DE3) E. coli, and once cells reached an OD of 0.8 after growing at 37° C., they were induced with 0.5 mM […] (IPTG) (Gold Biotechnology I2481C) at 37° C. for 4 hours. Bacterial pellets were resuspended in lysis buffer (500 mM NaCl, 50 mM HEPES, 5% glycerol, pH 7.5, complete protease inhibitor tablet) and lysed by microfluidization (M-110L; Microfluidics). Cell lysates were then cleared by centrifugation at 20,000 rpm for 45 min (Beckman Avanti J-E, rotor type JA-20). Cleared cellular lysates were then subjected to Ni-NTA (QIAGEN) affinity chromatography, followed by elution with 300 mM imidazole (Sigma 12399) and overnight dialysis at 4° C. Dialyzed VLCAD was then concentrated and subjected to size exclusion chromatography (GE Healthcare Life Sciences Superdex 200 10/300 GL) at 4° C. using 150 mM NaCl, 50 mM Tris, pH 8.0. Protein was used upon isolation and was stored at 4° C. for up to two weeks. Successful protein production was confirmed by SDS-PAGE, Western blot, intact MS, and enzymatic activity assay.
A peptide enthalpy screen was performed by adding 80 μM of recombinant VLCAD to the cell in analysis buffer (20 mM HEPES, pH 7.5, 150 mM NaCl, 1 mM TCEP, and 1% DMSO), followed by injection of 2.0 μL of 100 μM peptide by syringe, using an Affinity ITC (TA instruments) at 25° C. Injections were performed in technical triplicate for each peptide. […] Data were analyzed with the NanoAnalyze software package (TA instruments) using a single binding site model and thermodynamic parameters calculated as follows: ΔG=ΔH−TΔS=−RTlnKB, where ΔG, ΔH, and ΔS are the changes in free energy, enthalpy and entropy of binding, respectively.

relative binding activity for VLCAD (ITC enthalpy screen, consistent with pull down) (VLCAD)	relative binding activity for VLCAD (ITC enthalpy screen, consistent with pull down) (VLCAD; listed as MCL-1 SAHBD V220A)	Compound	effect of alanine mutation on biotinylated MCL-1 SAHBD interaction with MCL-1 (endogenous MCL-1)	summary of binding properties: binding to MCL-1 (endogenous MCL-1)
robust binding	strongest binder	CC(=O)N[C@@H](CCCNC(=N)N)C(=O)N[C@@H](CCCCN)C(=O)N[C@@H](C)C(=O)N[C@@H](CC(C)C)C(=O)N[C@@H](CCC(=O)O)C(=O)N[C@H](C(=O)N[C@@H](CC(C)C)C(=O)N[C@@H](CCCNC(=N)N)C(=O)N[C@@H](CCCNC(=N)N)C(=O)N[C@H](C(=O)NCC(=O)N[C@@H](CC(=O)O)C(=O)NCC(=O)N[C@@H](C)C(=O)N[C@@]1(C)CCCC=CCCC[C@@](C)(C(=O)N[C@H](C(=O)N[C@@H](C)C(=O)N[C@@H](Cc2ccccc2)C(N)=O)[C@@H](C)O)NC(=O)[C@H](Cc2c[nH]cn2)NC(=O)[C@H](CC(N)=O)NC(=O)[C@H](CCCNC(=N)N)NC1=O)C(C)C)[C@@H](C)O [V220A] (Ac-RKALETLRRVGDGA[S5]RNH[S5]TAF-NH2; staple 15-19; N-terminus and C-terminus assumed)	uniquely disruptive	weakly or not
robust binding		D218A: biotinylated MCL-1 SAHBD alanine point mutant D218A (RKALETLRRVGAGV[S5]RNH[S5]TAF; staple 15-19; also: biotinylated, place not given here)		Binds
weak VLCAD association		F228A: biotinylated MCL-1 SAHBD alanine point mutant F228A (RKALETLRRVGDGV[S5]RNH[S5]TAA; staple 15-19; also: biotinylated, place not given here)		Does not bind
weak VLCAD association		L213A: biotinylated MCL-1 SAHBD alanine point mutant L213A (RKALETARRVGDGV[S5]RNH[S5]TAF; staple 15-19; also: biotinylated, place not given here)	disrupted	Does not bind
		MCL-1 SAHBD: hydrocarbon-stapled peptide mimicking the MCL-1 BH3 domain (Stabilized Alpha-Helix of BCL-2 Domain), SEQ ID NO:19 (RKALETLRRVGDGV[S5]RNH[S5]TAF; staple 15-19)		Binds
weak VLCAD association		R207A: biotinylated MCL-1 SAHBD alanine point mutant R207A (AKALETLRRVGDGV[S5]RNH[S5]TAF; staple 15-19; also: biotinylated, place not given here)		diminished binding
weak VLCAD association		R214A: biotinylated MCL-1 SAHBD alanine point mutant R214A (RKALETLARVGDGV[S5]RNH[S5]TAF; staple 15-19; also: biotinylated, place not given here)		Does not bind
weak VLCAD association		R215A: biotinylated MCL-1 SAHBD alanine point mutant R215A (RKALETLRAVGDGV[S5]RNH[S5]TAF; staple 15-19; also: biotinylated, place not given here)		Binds
